Like-named read-outs stand apart in the source and are kept apart here.
Columns and labels:
Assay type in all cases: biochemical
PDK1 = target: T1, PDK1 (Homo sapiens, UniProt O15530); assay: PDK1 Enzyme Assay (Alphascreen)
T1 construct: 6His; made in house; host or cells: insect cells
T1 sequence (O15530 1-556): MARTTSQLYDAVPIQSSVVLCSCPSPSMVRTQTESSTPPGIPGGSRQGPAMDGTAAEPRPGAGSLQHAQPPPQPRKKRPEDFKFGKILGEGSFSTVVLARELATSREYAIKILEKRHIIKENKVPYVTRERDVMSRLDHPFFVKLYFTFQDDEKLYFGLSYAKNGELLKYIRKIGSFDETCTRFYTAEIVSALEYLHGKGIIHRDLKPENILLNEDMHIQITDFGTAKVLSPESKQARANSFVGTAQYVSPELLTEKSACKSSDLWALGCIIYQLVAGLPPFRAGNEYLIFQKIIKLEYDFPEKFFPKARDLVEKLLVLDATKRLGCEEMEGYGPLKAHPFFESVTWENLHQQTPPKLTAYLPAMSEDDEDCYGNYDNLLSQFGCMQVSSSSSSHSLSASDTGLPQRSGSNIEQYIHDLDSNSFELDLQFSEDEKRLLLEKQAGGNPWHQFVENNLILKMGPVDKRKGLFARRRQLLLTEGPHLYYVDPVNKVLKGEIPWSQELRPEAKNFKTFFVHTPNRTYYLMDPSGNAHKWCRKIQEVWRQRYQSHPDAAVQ
Procedure: The assay utilised Alphascreen technology (Ullman, E F, et al. Proc. Natl. Acad. Sci. USA, Vol. 91, pp. 5426-5430, 1994) to measure the ability of compounds to inhibit PDK1 enzyme activity. 6H is tagged PDK1 enzyme was expressed in insect cells and purified using NiNTA beads and conventional protein purification methodology.
Test compounds were prepared as 10 mM stock solutions in DMSO and diluted into water as required to give a range of final assay concentrations. 2 μl aliquots of compounds were dispensed into Greiner Bio-One low volume 384 well plates (Catalogue no. 784075). For the activity assay, to each well was added 5 μl of a mixture of 48 nM native peptide (Biotin-Ahx-[…]NH2, Bachem UK Ltd) and 12 μM adenosine triphosphate (ATP) in reaction buffer comprising Tris-HCl pH7.4 (60 mM), magnesium acetate (12 mM), EGTA (120 μM), DTT (1.2 mM) and bovine serum albumin (0.12 mg/ml). […]
Each reaction was stopped by addition of 5 μl of a solution containing Tris-HCl pH7.4 (50 mM), bovine serum albumin (1 mg/ml), EDTA (90 mM), anti-phospho Akt T308 antibody, R&D Systems, Catalogue no. […] Plates were then sealed and incubated overnight in low light conditions before being read on an Envision plate reader (Perkin Elmer). […]

Pak1 = target: T2, Pak1 (Homo sapiens, UniProt Q13153); assay: In Vitro Pak1 Enzyme Assay (SPA); details: read-out: IC50 value in the Pak 1 enzyme assay
T2 construct: The full-length Pak1 protein is expressed in E. coli as a GST fusion; GST; made in house; host or cells: E. coli
T2 sequence (Q13153 whole entry, the tested form may be a part): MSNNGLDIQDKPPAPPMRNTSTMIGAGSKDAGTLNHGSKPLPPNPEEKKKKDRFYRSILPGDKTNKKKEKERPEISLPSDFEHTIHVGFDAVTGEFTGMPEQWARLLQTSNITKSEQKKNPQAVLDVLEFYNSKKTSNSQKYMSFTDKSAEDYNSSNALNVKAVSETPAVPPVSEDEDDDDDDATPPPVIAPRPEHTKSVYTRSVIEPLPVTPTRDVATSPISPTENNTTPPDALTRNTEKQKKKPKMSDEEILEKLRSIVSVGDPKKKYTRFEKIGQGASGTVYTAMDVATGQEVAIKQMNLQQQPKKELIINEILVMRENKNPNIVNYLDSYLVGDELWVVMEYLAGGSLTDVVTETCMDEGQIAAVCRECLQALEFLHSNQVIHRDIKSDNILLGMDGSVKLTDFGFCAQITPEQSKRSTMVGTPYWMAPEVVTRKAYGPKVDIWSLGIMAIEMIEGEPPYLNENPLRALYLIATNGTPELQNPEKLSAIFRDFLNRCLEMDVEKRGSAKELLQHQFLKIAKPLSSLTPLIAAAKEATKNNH
Procedure: (§1) The assay used Scintillation Proximity Assay (SPA) technology (Antonsson et al., Analytical Biochemistry, 1999, 267: 294-299) to determine the ability of test compounds to inhibit phosphorylation by recombinant Pak1. The full-length Pak1 protein is expressed in E. coli as a GST fusion and purified using the GST tag using standard purification techniques.
(§2) Test compounds were prepared as 10 mM stock solutions in DMSO and diluted into water as required to give a range of final assay concentrations. Aliquots (5 μl) of each compound dilution were placed into a well of a Matrix 384-well flat bottom white polystyrene plate (Catalogue No. 4316). […]
(§3) Each reaction was stopped and the biotinylated peptide captured by the addition of 30 Ξl of a mixture of Streptavidin coated PVT SPA bead slurry (Amersham Biosciences, Catalogue No. RPQO205; 250 μg/well) in 50 mM Tris-HCl pH7.5 buffer containing 0.05% sodium azide followed by the addition of 30 μl of 2.83M Caesium chloride (final assay concentration of 1M). Plates are then left for 2 hours on the bench before being counted on a TopCount. […]
Pak1 enzyme inhibition for a given test compound was expressed as an IC50 value.

Pak4 = target: T3, Pak4 (Homo sapiens, UniProt O96013); assay: In Vitro Pak4 Enzyme Assay (SPA); details: read-out: IC50 value in the Pak 4 enzyme assay
T3 construct: The kinase domain of Pak4 (amino acids 291 to 591) is expressed in E. coli as a GST fusion; GST; made in house; host or cells: E. coli
T3 sequence (O96013 291-591): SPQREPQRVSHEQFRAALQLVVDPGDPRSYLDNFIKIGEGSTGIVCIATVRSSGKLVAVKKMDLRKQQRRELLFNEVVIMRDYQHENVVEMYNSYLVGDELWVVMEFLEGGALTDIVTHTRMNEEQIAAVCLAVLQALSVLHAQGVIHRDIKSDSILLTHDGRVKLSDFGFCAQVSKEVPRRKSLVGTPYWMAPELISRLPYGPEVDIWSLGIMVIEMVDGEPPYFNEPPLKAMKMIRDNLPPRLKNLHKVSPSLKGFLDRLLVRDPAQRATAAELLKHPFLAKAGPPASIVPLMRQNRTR
Procedure: as §1, with “Pak4.” for “Pak1.”, “kinase domain of Pak4 (amino acids 291 to 591)” for “full-length Pak1 protein”
as §2
as §3, with “μl” for “Ξl”, “RPQ0205;” for “RPQO205;”
Pak4 enzyme inhibition for a given test compound was expressed as an IC50 value. […]

CHK1 kinase = target: T4, CHK1 kinase (Homo sapiens, UniProt O14757); assay: Checkpoint Kinase 1 Assay (SPA)
T4 construct: The kinase domain is expressed in baculovirus and purified by the GST tag; GST; made in house; host or cells: baculovirus system (insect cells implied)
T4 sequence (O14757 9-265 limits assumed): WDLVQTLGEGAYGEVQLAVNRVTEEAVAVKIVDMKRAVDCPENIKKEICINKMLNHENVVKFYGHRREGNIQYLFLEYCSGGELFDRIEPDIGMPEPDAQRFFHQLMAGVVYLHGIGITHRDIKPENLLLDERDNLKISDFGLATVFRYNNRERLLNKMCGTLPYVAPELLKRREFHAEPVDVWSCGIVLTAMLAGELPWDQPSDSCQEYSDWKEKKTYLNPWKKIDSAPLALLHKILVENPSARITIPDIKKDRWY
Procedure: Checkpoint Kinase 1 Assay: This in vitro assay measures the inhibition of CHK1 kinase by compounds. The kinase domain is expressed in baculovirus and purified by the GST tag. Purified protein and biotinylated peptide substrate (Cdc25C) is then used in a 384 well automated Scintillation Proximity Assay (SPA). Specifically, peptide, enzyme and reaction buffer are mixed and aliquoted into a 384 well plate containing dilution series of compounds and controls. Cold and hot ATP are then added to initiate the reaction. After 2 hours, a SPA bead slurry, […] and EDTA are added to stop the reaction and capture the biotinylated peptide. Plates are then counted on a Topcount. Data is analyzed and IC50s determined for individual compounds.

SMILES	IC50 (PDK1)	IC50 (Pak1)	IC50 (Pak4)	IC50 (CHK1 kinase)	IC50 (CHK1 kinase; read-out: IC50 value in the Checkpoint Kinase 1 assay)
NC(=O)c1cnc(N[C@H]2CCCNC2)c2cc(-c3ccc(Cl)cc3)sc12 [Example 14, 2-(4-chlorophenyl)-4-[(3S)-piperidin-3-ylamino]thieno[3,2-c]pyridine-7-carboxamide]	160 nM	600 nM	100 nM	–	–
Cc1cc2c(N[C@H]3CCCNC3)ncc(C(N)=O)c2s1 [Example 157, 2-methyl-4-[(3S)-piperidin-3-ylamino]thieno[3,2-c]pyridine-7-carboxamide]	–	–	–	150 nM	–
NC(=O)c1cnc(N[C@H]2CCCNC2)c2cc(-c3cc(F)cc(F)c3)sc12 [Example 10, 2-(3,5-difluorophenyl)-4-[(3S)-piperidin-3-ylamino]thieno[3,2-c]pyridine-7-carboxamide]	350 nM	730 nM	140 nM	–	–
NCCNc1ncc(C(N)=O)c2sc(-c3ccccc3)cc12 [Example 16, 4-[(2-aminoethyl)amino]-2-phenylthieno[3,2-c]pyridine-7-carboxamide]	–	–	–	–	550 nM
